# Laboratory results reported in US8563715B2, “Pyrimidine derivative having cell protecting effect and uses thereof” (Zenyaku Kogyo Kabushikikaisha, priority 2008, dated 2013).
# pEC50: −log10 of the molar value.
# Columns and labels:
# [1] = test system: astrocyte/neuron co-culture; assay: Brain cell damage induced by hydrogen peroxide treatment (LDH assay); format: cell-based; details: Rattus norvegicus, hydrogen peroxide (250 μM), 24 hours, read-out: 50% inhibition concentration against cell damage in entire co-culture system (EC50 value)
# Procedure: (§1) The brain was removed from 1 to 2 day old Wistar rats (Charles River) or Sprague-Dawley (IGS) rats (Charles River), and the cerebral cortex including the hippocampus was excised under ice cooling. After this cerebral cortex was minced, it was digested with papain solution (9 U/ml) containing DNase I (30 U/ml) at 37 degrees Celsius for 15 minutes, dispersing the cells. After further carrying out mechanical dispersing by pipetting, it was passed through a cell strainer with a pore size of 70 μm, and a cell suspension was obtained. Cells derived from 1.4 cerebra were seeded on 150 mm tissue culture dish (Iwaki Glass), and primary culture was carried out at 37 degrees Celsius and 5% CO2 using a D-MEM medium (Invitrogen) containing 10% heat-inactivated fetal calf serum (JRH). One day after the start of the culture, the nonadherent cells were removed, and the primary cultured astrocytes were obtained by continuing the culture for 4 to 5 further days. The primary cultured astrocytes were dispersed by trypsin treating, suspended in cryopreservation solution, and cryopreserved.
# (§2) After thawing the cryopreserved primary cultured astrocytes, they were seeded on tissue culture plates (Iwaki Glass), and a confluent astrocyte layer was produced by a further 7 days of secondary culture using a D-MEM medium containing 10% heat-inactivated fetal calf serum. Neurons to be used in the co-culture with the astrocyte layer were obtained from fetal rat cerebrum. Briefly, brains were removed from Wistar rats (Charles River) or Sprague-Dawley (IGS) rats (Charles River) of embryonic age 18.5 days, and the cerebral cortex including the hippocampus was excised under ice cooling. After this cerebral cortex was minced, it was digested in papain solution (9 U/ml) containing DNase I (30 U/ml) at 37 degrees Celsius for 15 minutes, dispersing the cells. After further carrying out mechanical dispersing by pipetting, it was passed through a cell strainer with a pore size of 70 μm, and a cell suspension was obtained. This cell suspension was plated at a density of 1.3×10^5 cells/cm^2 on the astrocyte layer, and a co-culture was carried out using D-MEM/F-12 medium (Invitrogen) containing 10% heat-inactivated fetal calf serum and 5% horse serum (Invitrogen). 2 days after the start of the co-culture, cells were treated for 24 hours with 10 μM cytosine arabinoside in order to suppress the excessive cell proliferation of microglia and the like. 8 to 9 days after the start of the co-culture, cells were used for the test. Additionally, using one portion of the cells, immunofluorescent staining and nuclear staining was carried out with astrocyte recognizing antibodies (anti-GFAP) and neuron recognizing antibodies (anti-MAP2), in order to confirm that the present culture system is a co-culture system of astrocytes and neurons.
# (§3) An astrocyte/neuron co-culture cultured on a 96 well plate was used in the test. A predetermined concentration of the test substance and hydrogen peroxide (250 μM) was simultaneously added to the cell culture in each well with continuing cultivation, and analysis was done 24 hours after this treatment. Using an LDH Cytotoxicity Detection Kit (Takara Bio), analysis was carried out in accordance with the included instruction manual, and the damage to the entire co-culture system by the hydrogen peroxide treatment and the protective effect (EC 50 value) of the test substance was evaluated. Further, the cell bodies and the neuronal processes of the neurons were observed by microscope, and the neuroprotective effect was evaluated.
# [2] = test system: neurons in astrocyte/neuron co-culture; assay: Brain cell damage induced by hydrogen peroxide treatment (neuroprotective effect, microscope observation); format: cell-based; details: Rattus norvegicus, hydrogen peroxide (250 μM), 24 hours, read-out: Concentration for complete inhibition of neuronal death
# Procedure: as §1, §2, §3
SMILES,pEC50 [1],EC100 [2] [µM],melting point [°C]
"Cc1ccccc1N1CCN(c2nc(N3CCOCC3)cc(N3CCN(c4ccccc4)CC3)n2)CC1 [Compound 61, 2-[4-(2-methylphenyl)piperazin-1-yl]-6-morpholino-4-(4-phenylpiperazin-1-yl)pyrimidine]",5.19,10,–
"COc1ccc(/C=C/c2nc(NCCN)c(N)c(N3CCOCC3)n2)cc1 [Compound 174, 5-amino-4-(2-aminoethylamino)-2-[2-(4-methoxyphenyl)vinyl]-6-morpholinopyrimidine]",5.51,10,–
"Fc1ccccc1N1CCN(c2nc(N3CCN(c4ccccc4)CC3)nc(N3CCOCC3)c2F)CC1 [Compound 125, 5-fluoro-4-[4-(2-fluorophenyl)piperazin-1-yl]-6-morpholino-2-(4-phenylpiperazin-1-yl)pyrimidine]",6.25,–,140 to 141
"CN(C)c1nc(N2CCC(Cc3ccccc3)CC2)nc(N2CCOCC2)c1N [Compound 68, 5-amino-2-(4-benzylpiperidin-1-yl)-4-dimethylamino-6-morpholinopyrimidine]",6.07,–,–
"Cc1ccccc1N1CCN(c2nc(N3CCOCC3)c(F)c(N3CCN(c4ccccc4)CC3)n2)CC1 [Compound 128, 5-fluoro-2-[4-(2-methylphenyl)piperazin-1-yl]-6-morpholino-4-(4-phenylpiperazin-1-yl)pyrimidine]",6.52,3,–
"Cc1ccc(N2CCN(c3nc(N4CCOCC4)nc(N4CCN(C)CC4)c3F)CC2)cc1 [Compound 155, 5-fluoro-4-[4-(4-methylphenyl)piperazin-1-yl]-6-(4-methylpiperazin-1-yl)-2-morpholinopyrimidine]",6.49,3,–
"Fc1ccccc1N1CCN(c2nc(N3CCOCC3)c(F)c(N3CCN(c4ccccc4F)CC3)n2)CC1 [Compound 126, 2,4-bis[4-(2-fluorophenyl)piperazin-1-yl]-5-fluoro-6-morpholinopyrimidine]",6.10,–,131 to 132
"N#CC1(c2ccccc2)CCN(c2nc(N3CCOCC3)nc(N3CCOCC3)c2F)CC1 [Compound 115, 4-(4-cyano-4-phenylpiperidin-1-yl)-5-fluoro-2,6-dimorpholinopyrimidine]",6.20,–,–
"Cc1ccc(N2CCN(c3nc(N4CCOCC4)nc(NCCN4CCOCC4)c3F)CC2)cc1 [Compound 160, 5-fluoro-4-[4-(4-methylphenyl)piperazin-1-yl]-2-morpholino-6-(2-morpholinoethylamino)pyrimidine]",5.97,3,–
"CCN(CC)c1ccc(CCCCc2nc(N3CCOCC3)c(N)c(N3CCOCC3)n2)cc1 [Compound 145, 5-amino-2-[4-(4-diethylaminophenyl)butyl]-4,6-dimorpholinopyrimidine]",6.17,–,–
"COc1ccc(/C=C/c2nc(N3CCOCC3)c(N)c(N3CCN(S(=O)(=O)N(C)C)CC3)n2)cc1 [Compound 215, 5-amino-4-(4-dimethylsulfamoylpiperazin-1-yl)-2-[2-(4-methoxyphenyl)vinyl]-6-morpholinopyrimidine]",5.79,10,–
"CN1CCN(c2nc(N3CCCc4ccccc43)nc(N3CCOCC3)c2F)CC1 [Compound 167, 5-fluoro-4-(4-methylpiperazin-1-yl)-6-morpholino-2-(1,2,3,4-tetrahydro-1H-quinolin-1-yl)pyrimidine]",6.55,–,–
"Cc1cccc(N2CCN(c3nc(N4CCN(Cc5ccncc5)CC4)nc(N4CCOCC4)c3F)CC2)c1C [Compound 191, 5-fluoro-4-morpholino-2-[4-(4-pyridinylmethyl)piperazin-1-yl]-6-[4-(2,3-xylyl)piperazin-1-yl]-pyrimidine]",6.14,–,127 to 128
"CCCNc1cc(N2CCOCC2)nc(N2CCN(c3ccccc3)CC2)n1 [Compound 56, 4-morpholino-2-(4-phenylpiperazin-1-yl)-6-propylaminopyrimidine]",5.53,10,–
"CC(C)(C)OC(=O)N1CCN(c2nc(N3CCCc4ccccc43)nc(N3CCOCC3)c2F)CC1 [Compound 168, 4-[4-(tert-butoxycarbonyl)piperazin-1-yl]-5-fluoro-6-morpholino-2-(1,2,3,4-tetrahydro-1H-quinolin-1-yl)pyrimidine]",6.51,3,–
"Cc1cccc(N2CCN(c3nc(N4CCN(Cc5ccc(N(C)C)cc5)CC4)nc(N4CCOCC4)c3F)CC2)c1C [Compound 192, 5-fluoro-2-[4-(4-dimethylaminobenzyl)piperazin-1-yl]-4-morpholino-6-[4-(2,3-xylyl)piperazin-1-yl]pyrimidine]",6.52,1,–
"Cc1cccc(N2CCN(c3nc(N4CCOCC4)c(F)c(N4CCN(C(=O)OC(C)(C)C)CC4)n3)CC2)c1C [Compound 179, 4-(4-tert-butoxycarbonylpiperazin-1-yl)-5-fluoro-6-morpholino-2-[4-(2,3-xylyl)piperazin-1-yl]pyrimidine]",6.47,3,–
"COc1ccc(/C=C/c2nc(N(C)C)c(N)c(N3CCNCC3)n2)cc1 [Compound 210, 5-amino-4-dimethylamino-2-[2-(4-methoxyphenyl)vinyl]-6-(1-piperazinyl)pyrimidine]",5.39,10,–
"CC(=O)Nc1c(N2CCOCC2)nc(N2CCOCC2)nc1N1CCC(Cc2ccccc2)CC1 [Compound 78, 5-acetylamino-4-(4-benzylpiperidin-1-yl)-2,6-dimorpholinopyrimidine]",5.01,30,–
"CCOc1ccccc1N1CCN(c2nc(N3CCOCC3)c(F)c(N3CCN(C)CC3)n2)CC1 [Compound 190, 2-[4-(2-ethoxyphenyl)piperazin-1-yl]-5-fluoro-4-(4-methylpiperazin-1-yl)-6-morpholinopyrimidine]",6.47,3,–
"CN1CCN(c2nc(N3CCN(c4ccccc4Cl)CC3)nc(N3CCOCC3)c2F)CC1 [Compound 187, 2-[4-(2-chlorophenyl)piperazin-1-yl]-5-fluoro-6-(4-methylpiperazin-1-yl)-4-morpholino pyrimidine]",6.48,1,–
"COc1ccc(CCc2nc(N3CCOCC3)c(N)c(N3CCN(S(=O)(=O)N(C)C)CC3)n2)cc1 [Compound 214, 5-amino-4-(4-dimethylsulfamoylpiperazin-1-yl)-2-[2-(4-methoxyphenyl)ethyl]-6-morpholinopyrimidine]",5.65,10,–
"CN(C)c1cc(N2CCOCC2)nc(N2CCN(c3ccccc3)CC2)n1 [Compound 2, 4-dimethylamino-6-morpholino-2-(4-phenylpiperazin-1-yl)pyrimidine]",4.74,–,149
"CN1CCN(c2nc(N3CCOCC3)nc(N3CCN(c4ccccc4)CC3)c2F)CC1 [Compound 171, 5-fluoro-4-(4-methylpiperazin-1-yl)-2-morpholino-6-(4-phenylpiperazin-1-yl)pyrimidine]",6.31,–,–
"c1ccc2c(c1)CCN(c1nc(N3CCOCC3)cc(N3CCOCC3)n1)C2 [Compound 6, 4,6-dimorpholino-2-(1,2,3,4-tetrahydro-2H-isoquinolin-2-yl)pyrimidine]",5.08,–,–
"Nc1c(N2CCOCC2)nc(N2CCOCC2)nc1N1CCC(Cc2ccccc2)CC1 [Compound 67, 5-amino-4-(4-benzylpiperidin-1-yl)-2,6-dimorpholinopyrimidine]",5.75,–,–
"COc1ccc(/C=C/c2nc(N3CCOCC3)c(NC(C)=O)c(N3CCOCC3)n2)cc1 [Compound 79, 5-acetylamino-2-[2-(4-methoxyphenyl)vinyl]-4,6-dimorpholinopyrimidine]",–,–,189 to 191
"CC1CCc2cc(F)ccc2N1c1nc(N2CCOCC2)c(N)c(N2CCOCC2)n1 (stereo not drawn) [Compound 71, 5-amino-2-(6-fluoro-2-methyl-1,2,3,4-tetrahydroquinolin-1-yl)-4,6-dimorpholinopyrimidine]",5.71,–,–
"COc1ccccc1N1CCN(c2nc(N3CCOCC3)c(F)c(N3CCOCC3)n2)CC1 [Compound 108, 5-fluoro-2-[4-(2-methoxyphenyl)piperazin-1-yl]-4,6-dimorpholinopyrimidine]",–,–,171
